Laboratory results published in ChEMBL document CHEMBL1155185, “Design, synthesis, screening, and molecular modeling study of a new series of ROS1 receptor tyrosine kinase inhibitors” (Bioorg Med Chem Lett, 2009).

What follows are molecules tested against Proto-oncogene tyrosine-protein kinase ROS (Homo sapiens) (UniProt P08922) (assay: Inhibition of ROS1 at 20 uM by HotSpot assay).
Sequence of Proto-oncogene tyrosine-protein kinase ROS (Homo sapiens) (P08922 whole entry): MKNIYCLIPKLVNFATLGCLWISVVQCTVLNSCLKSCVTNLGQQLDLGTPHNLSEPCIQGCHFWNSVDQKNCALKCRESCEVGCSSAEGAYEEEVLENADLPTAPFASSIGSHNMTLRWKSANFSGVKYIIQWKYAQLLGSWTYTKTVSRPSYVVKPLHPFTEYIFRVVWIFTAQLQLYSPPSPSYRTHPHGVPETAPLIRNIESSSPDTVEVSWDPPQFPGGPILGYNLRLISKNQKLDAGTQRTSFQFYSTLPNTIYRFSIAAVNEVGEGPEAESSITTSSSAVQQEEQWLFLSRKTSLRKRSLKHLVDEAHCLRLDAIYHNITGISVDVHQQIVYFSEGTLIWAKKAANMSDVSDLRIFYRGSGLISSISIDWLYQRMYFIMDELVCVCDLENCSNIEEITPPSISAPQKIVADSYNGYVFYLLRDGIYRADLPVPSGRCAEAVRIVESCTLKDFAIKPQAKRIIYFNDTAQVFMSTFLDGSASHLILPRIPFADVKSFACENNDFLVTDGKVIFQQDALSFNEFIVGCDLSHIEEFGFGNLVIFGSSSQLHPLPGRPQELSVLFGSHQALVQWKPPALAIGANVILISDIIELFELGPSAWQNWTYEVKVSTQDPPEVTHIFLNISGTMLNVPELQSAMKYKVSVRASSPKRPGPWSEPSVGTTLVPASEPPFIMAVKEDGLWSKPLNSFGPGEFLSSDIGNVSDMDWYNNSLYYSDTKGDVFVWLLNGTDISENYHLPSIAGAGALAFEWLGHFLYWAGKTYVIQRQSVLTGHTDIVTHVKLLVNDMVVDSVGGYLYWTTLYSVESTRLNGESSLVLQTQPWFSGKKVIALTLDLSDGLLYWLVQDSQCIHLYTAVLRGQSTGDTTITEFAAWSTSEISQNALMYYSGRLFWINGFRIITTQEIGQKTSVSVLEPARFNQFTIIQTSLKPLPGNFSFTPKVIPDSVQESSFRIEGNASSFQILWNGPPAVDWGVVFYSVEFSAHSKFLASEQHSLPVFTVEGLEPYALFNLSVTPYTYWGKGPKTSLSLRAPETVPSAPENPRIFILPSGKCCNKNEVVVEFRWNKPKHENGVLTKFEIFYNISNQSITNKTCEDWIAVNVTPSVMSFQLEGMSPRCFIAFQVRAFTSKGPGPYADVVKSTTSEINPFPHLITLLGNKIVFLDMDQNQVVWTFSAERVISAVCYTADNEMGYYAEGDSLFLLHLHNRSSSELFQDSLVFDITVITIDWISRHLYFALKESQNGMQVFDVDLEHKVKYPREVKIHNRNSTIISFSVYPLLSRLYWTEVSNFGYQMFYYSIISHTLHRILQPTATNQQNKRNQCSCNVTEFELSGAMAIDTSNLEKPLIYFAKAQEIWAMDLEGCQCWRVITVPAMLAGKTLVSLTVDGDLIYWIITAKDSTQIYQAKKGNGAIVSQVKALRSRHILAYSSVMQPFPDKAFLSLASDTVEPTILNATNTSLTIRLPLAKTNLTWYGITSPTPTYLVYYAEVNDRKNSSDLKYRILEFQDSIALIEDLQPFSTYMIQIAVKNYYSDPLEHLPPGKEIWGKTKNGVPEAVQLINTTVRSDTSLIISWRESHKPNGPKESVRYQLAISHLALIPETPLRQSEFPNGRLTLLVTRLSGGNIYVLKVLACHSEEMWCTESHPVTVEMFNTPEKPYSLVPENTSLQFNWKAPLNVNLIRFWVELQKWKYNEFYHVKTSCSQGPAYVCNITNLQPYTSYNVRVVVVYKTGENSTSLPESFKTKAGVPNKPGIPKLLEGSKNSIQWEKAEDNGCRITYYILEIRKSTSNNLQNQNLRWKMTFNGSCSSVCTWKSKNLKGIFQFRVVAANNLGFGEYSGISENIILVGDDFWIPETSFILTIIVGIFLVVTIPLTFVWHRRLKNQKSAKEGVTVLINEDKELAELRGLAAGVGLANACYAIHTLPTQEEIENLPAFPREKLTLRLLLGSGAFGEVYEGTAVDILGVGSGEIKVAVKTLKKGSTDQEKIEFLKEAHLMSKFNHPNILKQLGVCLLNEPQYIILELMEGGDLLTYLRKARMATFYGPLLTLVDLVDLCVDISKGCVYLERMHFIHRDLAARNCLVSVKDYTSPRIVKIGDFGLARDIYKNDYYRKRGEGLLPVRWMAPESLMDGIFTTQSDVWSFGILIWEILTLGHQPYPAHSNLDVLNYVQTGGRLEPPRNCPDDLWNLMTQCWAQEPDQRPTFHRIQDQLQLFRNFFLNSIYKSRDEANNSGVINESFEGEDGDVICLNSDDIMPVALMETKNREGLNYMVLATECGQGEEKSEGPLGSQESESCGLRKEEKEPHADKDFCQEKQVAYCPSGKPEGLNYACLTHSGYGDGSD

Q: With `COc1cc(C)cc(-c2c(-c3ccc(-c4cccc(C(C)=O)c4)nc3)cnn2CC#N)c1` as the molecule, how does the inhibition read?
A: < 30%

Q: How did the inhibition turn out when `COc1cc(C)cc(-c2c(-c3ccnc(-c4cccc(NC(C)=O)c4)c3)cnn2CC#N)c1` was run?
A: < 30%

Q: For `COc1cc(C)cc(-c2nn(CC#N)cc2-c2ccnc(-c3cccc(C(C)=O)c3)c2)c1`, which inhibition is on record?
A: < 30%

Q: Which inhibition does the source give for `Cc1cc(O)cc(-c2c(-c3ccnc(-c4ccccc4)c3)cnn2CC#N)c1` here?
A: < 30%

Q: With `CC(=O)c1ccccc1-c1ccc(-c2cnn(CC#N)c2-c2cc(C)cc(O)c2)cn1` as the molecule, how does the inhibition read?
A: < 30%

Q: With `Cc1cc(O)cc(-c2c(-c3ccnc(-c4ccc(C#N)cc4)c3)cnn2CC#N)c1` as the molecule, how does the inhibition read?
A: < 30%

Q: For `COc1cc(C)cc(-c2nn(CC#N)cc2-c2ccnc(-c3ccccc3C(C)=O)c2)c1`, which inhibition is on record?
A: < 30%

Q: How did the inhibition turn out when `COc1cc(C)cc(-c2c(-c3ccnc(-c4cccnc4)c3)cnn2CC#N)c1` was run?
A: < 30%

Q: `CC(=O)Nc1cccc(-c2cc(-c3cn(CC#N)nc3-c3cc(C)cc(O)c3)ccn2)c1` was tested. Which inhibition did it give?
A: < 30%

Q: With `COc1cc(C)cc(-c2nn(CC#N)cc2-c2ccnc(-c3ccc(Oc4ccccc4)cc3)c2)c1` as the molecule, how does the inhibition read?
A: < 30%

Q: How did the inhibition turn out when `COc1cc(C)cc(-c2c(-c3ccnc(-c4cccc(C(C)=O)c4)c3)cnn2CC#N)c1` was run?
A: < 30%

Q: For `COc1cc(C)cc(-c2nn(CC#N)cc2-c2ccnc(-c3cccc(NC(C)=O)c3)c2)c1`, which inhibition is on record?
A: < 30%

Q: `CC(=O)c1ccc(-c2cc(-c3cn(CC#N)nc3-c3cc(C)cc(O)c3)ccn2)cc1` was tested. Which inhibition did it give?
A: < 30%

Q: Which inhibition does the source give for `COc1cc(C)cc(-c2c(-c3ccnc(-c4ccc(N(C)C)cc4)c3)cnn2CC#N)c1` here?
A: < 30%

Q: `Cc1cc(O)cc(-c2nn(CC#N)cc2-c2ccnc(-c3ccc(Oc4ccccc4)cc3)c2)c1` was tested. Which inhibition did it give?
A: < 30%

Q: How did the inhibition turn out when `CC(=O)c1ccccc1-c1cc(-c2cnn(CC#N)c2-c2cc(C)cc(O)c2)ccn1` was run?
A: < 30%

Q: For `Cc1cc(O)cc(-c2c(-c3ccnc(-c4ccc(Oc5ccccc5)cc4)c3)cnn2CC#N)c1`, which inhibition is on record?
A: < 30%

Q: With `COc1cc(C)cc(-c2c(-c3ccc(-c4cccnc4)nc3)cnn2CC#N)c1` as the molecule, how does the inhibition read?
A: < 30%

Q: How did the inhibition turn out when `COc1cc(C)cc(-c2c(-c3ccnc(-c4ccc(Oc5ccccc5)cc4)c3)cnn2CC#N)c1` was run?
A: < 30%

Q: For `Cc1cc(O)cc(-c2c(-c3ccnc(-c4cccnc4)c3)cnn2CC#N)c1`, which inhibition is on record?
A: < 30%

Q: `Cc1cc(O)cc(-c2nn(CC#N)cc2-c2ccnc(-c3cccnc3)c2)c1` was tested. Which inhibition did it give?
A: 96%

Q: `COc1cc(C)cc(-c2nn(CC#N)cc2-c2ccc(-c3cccc(C(C)=O)c3)nc2)c1` was tested. Which inhibition did it give?
A: < 30%

Q: `CC(=O)c1ccc(-c2cc(-c3cnn(CC#N)c3-c3cc(C)cc(O)c3)ccn2)cc1` was tested. Which inhibition did it give?
A: < 30%

Q: Which inhibition does the source give for `Cc1cc(O)cc(-c2nn(CC#N)cc2-c2ccnc(-c3ccc(N(C)C)cc3)c2)c1` here?
A: < 30%

Q: For `COc1cc(C)cc(-c2nn(CC#N)cc2-c2ccnc(-c3ccccc3)c2)c1`, which inhibition is on record?
A: < 30%

Q: With `Cc1cc(O)cc(-c2nn(CC#N)cc2-c2ccnc(-c3ccccc3)c2)c1` as the molecule, how does the inhibition read?
A: < 30%

Q: Which inhibition does the source give for `COc1cc(C)cc(-c2nn(CC#N)cc2-c2ccnc(-c3ccc(C#N)cc3)c2)c1` here?
A: < 30%

Q: How did the inhibition turn out when `COc1cc(C)cc(-c2c(-c3ccc(-c4ccccc4C(C)=O)nc3)cnn2CC#N)c1` was run?
A: < 30%

Q: Which inhibition does the source give for `CC(=O)c1cccc(-c2ccc(-c3cnn(CC#N)c3-c3cc(C)cc(O)c3)cn2)c1` here?
A: < 30%

Q: `COc1cc(C)cc(-c2c(-c3ccnc(-c4ccccc4NC(C)=O)c3)cnn2CC#N)c1` was tested. Which inhibition did it give?
A: < 30%

Q: Which inhibition does the source give for `COc1cc(C)cc(-c2nn(CC#N)cc2-c2ccnc(-c3ccccc3NC(C)=O)c2)c1` here?
A: < 30%

Q: With `CC(=O)c1ccccc1-c1cc(-c2cn(CC#N)nc2-c2cc(C)cc(O)c2)ccn1` as the molecule, how does the inhibition read?
A: < 30%

Q: Which inhibition does the source give for `Cc1cc(O)cc(-c2c(-c3ccnc(-c4ccc(N(C)C)cc4)c3)cnn2CC#N)c1` here?
A: < 30%

Q: How did the inhibition turn out when `CC(=O)Nc1cccc(-c2cc(-c3cnn(CC#N)c3-c3cc(C)cc(O)c3)ccn2)c1` was run?
A: < 30%

Q: `CC(=O)Nc1ccccc1-c1cc(-c2cnn(CC#N)c2-c2cc(C)cc(O)c2)ccn1` was tested. Which inhibition did it give?
A: < 30%

Q: How did the inhibition turn out when `CC(=O)c1ccccc1-c1ccc(-c2cn(CC#N)nc2-c2cc(C)cc(O)c2)cn1` was run?
A: < 30%

Q: For `COc1cc(C)cc(-c2nn(CC#N)cc2-c2ccnc(-c3ccc(N(C)C)cc3)c2)c1`, which inhibition is on record?
A: < 30%

Q: `COc1cc(C)cc(-c2c(-c3ccnc(-c4ccc(C#N)cc4)c3)cnn2CC#N)c1` was tested. Which inhibition did it give?
A: < 30%

Q: With `COc1cc(C)cc(-c2c(-c3ccnc(-c4ccccc4)c3)cnn2CC#N)c1` as the molecule, how does the inhibition read?
A: < 30%

Q: `CC(=O)c1cccc(-c2cc(-c3cn(CC#N)nc3-c3cc(C)cc(O)c3)ccn2)c1` was tested. Which inhibition did it give?
A: < 30%

Q: `CC(=O)c1cccc(-c2cc(-c3cnn(CC#N)c3-c3cc(C)cc(O)c3)ccn2)c1` was tested. Which inhibition did it give?
A: < 30%

Q: For `CC(=O)c1cccc(-c2ccc(-c3cn(CC#N)nc3-c3cc(C)cc(O)c3)cn2)c1`, which inhibition is on record?
A: < 30%

Q: For `COc1cc(C)cc(-c2nn(CC#N)cc2-c2ccc(-c3ccccc3C(C)=O)nc2)c1`, which inhibition is on record?
A: < 30%

Q: `COc1cc(C)cc(-c2nn(CC#N)cc2-c2ccnc(-c3cccnc3)c2)c1` was tested. Which inhibition did it give?
A: < 30%

Q: With `COc1cc(C)cc(-c2nn(CC#N)cc2-c2ccnc(-c3ccc(C(C)=O)cc3)c2)c1` as the molecule, how does the inhibition read?
A: < 30%

Q: How did the inhibition turn out when `Cc1cc(O)cc(-c2nn(CC#N)cc2-c2ccc(-c3cccnc3)nc2)c1` was run?
A: < 30%

Q: For `CC(=O)Nc1ccccc1-c1cc(-c2cn(CC#N)nc2-c2cc(C)cc(O)c2)ccn1`, which inhibition is on record?
A: < 30%

Q: Which inhibition does the source give for `COc1cc(C)cc(-c2c(-c3ccnc(-c4ccc(C(C)=O)cc4)c3)cnn2CC#N)c1` here?
A: < 30%

Q: With `COc1cc(C)cc(-c2c(-c3ccnc(-c4ccccc4C(C)=O)c3)cnn2CC#N)c1` as the molecule, how does the inhibition read?
A: < 30%

Q: Which inhibition does the source give for `COc1cc(C)cc(-c2nn(CC#N)cc2-c2ccc(-c3cccnc3)nc2)c1` here?
A: < 30%

Q: With `Cc1cc(O)cc(-c2nn(CC#N)cc2-c2ccnc(-c3ccc(C#N)cc3)c2)c1` as the molecule, how does the inhibition read?
A: < 30%
